Reference: patent publication US9969696B2, “Compounds as inhibitor of DNA double-strand break repair, methods and applications thereof” (INDIAN INSTITUTE OF SCIENCE, priority 2012, dated 2018)

Assays:
[1] = Solubility (characterisation data)
DNA end joining (NHEJ) = experiment: NHEJ assay, cell-free extracts prepared from rat testes; assay type: biochemical; conditions: cell-free repair system from rat testes; compatible, noncompatible, blunt ends
Procedure: ATP end-labeled oligomeric DNA substrate (75 bp) containing 4 nt overhangs at 5′ ends (about 2 h at 25° C.). In the case of vehicle control, DMSO is used. […] The reaction products are purified and resolved on about 8% denaturing polyacrylamide gel.
FIG. 2 depicts the NHEJ assay and study of joining efficiency. A. Schematic representation of NHEJ assay and substrates containing DSBs. B. Comparison of the effect of potential Ligase IV inhibitors on DNA end joining. The joined products are indicated. “M” represents [g-32 ? P] ATP end-labeled 50 by ladder. C. Quantification of the joining efficiency. […] “PSLU” is “photostimulated luminescence unit”. […] Products are resolved on 1% agarose gel and visualized. Ethidium bromide is used as a positive control for the intercalation assay.
The reaction products are resolved on 8% denaturing PAGE. “M” represents [γ-^32P]ATP end-labeled 50 by ladder. […] “M” is a 2 log DNA ladder.
A. Western blotting showing presence of Ligase IV/XRCC4 in eluted fractions. W is wash, 1 and 2 are different fractions. […] Concentrations of inhibitors used are indicated. For other details, FIG. 4 legend can be referred. C. […] Radiolabeled oligomeric DNA substrates containing 5′ compatible termini are then added to the reaction along with increasing concentrations of purified Ligase IV/XRCC4 complex (30, 60 and 120 fmol) and products are resolved on a PAGE. F. Bar diagram representing quantification of the complementation experiment performed on 5′-5′ and 5′-3′ noncomplementary ends. In all panels quantification of EJ based on 3 independent experiments is represented as mean±SEM.

| Compound | melting point | Solubility in dimethyl formamide (DMF), dimethyl sulfoxide (DMSO) [1] | Solubility in chloroform (CHCl3) [1] | Solubility in ethanol [1] | Inhibition of end joining (EJ) of various types of DSBs (DNA end joining (NHEJ)) |
| --- | --- | --- | --- | --- | --- |
| Nc1nc(S)nc(O)c1/N=C/c1ccc(Cl)cc1 [Compound 2, (E)-5-(4-chlorobenzylideneamino)-6-amino-2-mercaptopyrimidin-4-ol] | > 300 °C | soluble | Insoluble | Partially soluble |  |
| Nc1nc(S)nc(O)c1/N=C/c1ccc([N+](=O)[O-])cc1 [Compound 3, (E)-5-(4-nitrobenzylideneamino)-6-amino-2-mercaptopyrimidin-4-ol] | > 320 °C | soluble | Insoluble | Partially soluble |  |
| Nc1nc(S)nc(O)c1/N=C/c1ccc(O)cc1 [Compound 4, (E)-5-(4-hydroxybenzylideneamino)-6-amino-2-mercaptopyrimidin-4-ol] | > 320 °C | soluble | Insoluble | Partially soluble |  |
| COc1cc(/C=N/c2c(N)nc(S)nc2O)cc(OC)c1OC [Compound 5, (E)-5-(3,4,5-trimethoxybenzylideneamino)-6-amino-2-mercaptopyrimidin-4-ol] | 315 °C | soluble | Insoluble | Partially soluble |  |
| Oc1nc(S)nc(/N=C/c2ccc(Cl)cc2)c1/N=C/c1ccc(Cl)cc1 [Compound 6, (5E,6E)-5,6-bis(4-chlorobenzylideneamino)-2-mercaptopyrimidin-4-ol] | 260 to 262 °C | soluble | Insoluble | Partially soluble |  |
| Cc1ccc(/C=N/c2nc(S)nc(O)c2/N=C/c2ccc(C)cc2)cc1 [Compound 7, (5E,6E)-5,6-bis(4-methylbenzylideneamino)-2-mercaptopyrimidin-4-ol] | 181 to 183 °C | soluble | Insoluble | Partially soluble |  |
| Oc1nc(S)nc2nc3[nH]c4ccccc4c3nc12 [Compound 8, 2-mercapto-10H-indolo[3,2-g]pteridin-4-ol] | > 320 °C | soluble | Insoluble | Partially soluble |  |
| O=[N+]([O-])c1ccc(/C=N/c2nc(S)nc(O)c2/N=C/c2ccc([N+](=O)[O-])cc2)cc1 [Compound 9, (5E,6E)-5,6-bis(4-nitrobenzylideneamino)-2-mercaptopyrimidin-4-ol] |  | soluble | Insoluble | Partially soluble |  |
| COc1ccc(/C=N/c2nc(S)nc(O)c2/N=C/c2ccc(OC)cc2)cc1 [Compound 10, (5E,6E)-5,6-bis(4-methoxybenzylideneamino)-2-mercaptopyrimidin-4-ol] |  | soluble | Insoluble | Partially soluble |  |
| COc1cc(/C=N/c2nc(S)nc(O)c2/N=C/c2cc(OC)c(OC)c(OC)c2)cc(OC)c1OC [Compound 11, (5E,6E)-5,6-bis(3,4,5-trimethoxybenzylideneamino)-2-mercaptopyrimidin-4-ol] |  | soluble | Insoluble | Partially soluble |  |
| Oc1ccc(/C=N/c2nc(S)nc(O)c2/N=C/c2ccc(O)cc2)cc1 [Compound 12, (5E,6E)-5,6-bis(4-hydroxybenzylideneamino)-2-mercaptopyrimidin-4-ol] |  | soluble | Insoluble | Partially soluble |  |
| Cc1ccc(/C=N/c2c(N)nc(S)nc2O)cc1 [Compound 13, (E)-5-(4-methylbenzylideneamino)-6-amino-2-mercaptopyrimidin-4-ol] |  | soluble | Insoluble | Partially soluble |  |
| COc1ccc(/C=N/c2c(N)nc(S)nc2O)cc1 [Compound 14, (E)-5-(4-methoxybenzylideneamino)-6-amino-2-mercaptopyrimidin-4-ol] |  | soluble | Insoluble | Partially soluble |  |
| [Na+].[O-]c1nc(S)nc(/N=C/c2ccccc2)c1/N=C/c1ccccc1 [Compound 15, Sodium 5,6-bis((E)-benzylideneamino)-2-mercaptopyrimidin-4-olate] |  |  |  |  | inhibits end joining (EJ) irrespective of type and configurations of DSB |
